Counter-ions that a name gives are not always drawn.
Columns and labels:
[1] = target: Native human AAG (AAG + s) (Homo sapiens, UniProt P02763); experiment: ITC titration of native AAG (AAG + s) with drugs; assay type: binding; conditions: 310 K
Procedure: (§1) All chemicals were used without further purification. Immobilized SialEXO® (derived from Akkermansia muciniphilla and expressed in E. Coli) was obtained from Smart Enzymes™ Genovis (Lund, Sweden), and HEPES buffer was obtained from VWR International (Leuven, Belgium). All other reagents were of analytical grade or better. All solutions were prepared immediately before the experiments in order to minimize contamination and/or impair the stability of solutions. The solutions for microcalorimetric titrations were prepared in 25 mM HEPES at pH 7.40 containing 150 mM NaCl (Kemika, Zagreb, Croatia), using doubly distilled water and 5 M NaOH (Kemika, Zagreb, Croatia) for adjusting the pH value. AAG and drug solutions were prepared by dissolving the appropriate amount of solid in the given solvent.
The ITC titrations were performed on a MicroCal PEAQ–ITC calorimeter (Malvern Panalytical Ltd., Malvern, UK). The solutions were thoroughly degassed beforehand, under vacuum to avoid any formation of bubbles that might be present in the sample cell. All microcalorimetric measurements were performed at 37 °C. The volume of the sample cell was approximately 200 μ L and the volume of the burette (syringe) was 42 μ L. Each titration was performed in duplicate or triplicate. Blank experiments were performed to estimate corrections for the dilution heat.
AAG solution (100 – 200 μ M) was loaded into the sample cell using a calibrated syringe (1 mL Hamilton) and titrated with 1 – 2 mM drug solutions. The sample cell was continuously stirred at 700 rpm. Differential power (DP) is arbitrarily applied to each titration. The interval between successive injections was 200 s, which is long enough for the signal to return to its baseline and to ensure equilibrium after each addition. Double distilled water was present in the reference cell during all experiments. To correct for the thermal effect, control titrations were performed for drug solution in buffer under the same conditions as the AAG–drug titrations and dilution heat was subtracted from the AAG–drug titration data.
(§2) All ITC data were analyzed with MicroCal PEAQ-ITC Analysis Software 1.30 using the One Set Sites Fitting Model. […] All p values were calculated using the t-test() function in Microsoft Excel (Microsoft Corporation, Redmond, WA, USA).

[2] = target: Desialylated human AAG (AAG − s) (Homo sapiens, UniProt P02763); experiment: ITC titration of desialylated AAG (AAG − s) with drugs; assay type: binding; conditions: 310 K
Procedure: as §1
The ITC titrations were performed on a MicroCal PEAQ–ITC calorimeter (Malvern Panalytical Ltd., Malvern, UK). The solutions were thoroughly degassed beforehand, under vacuum to avoid any formation of bubbles that might be present in the sample cell. All microcalorimetric measurements were performed at 37 °C. […]
as §2

AAG + s or AAG − s = conditions: calculated; for Decrease of free drug concentration, AAG − s vs AAG + s, in the presence of HSA: with 0.64 mM HSA, depending on the conditions
Source text: AAG is an acute-phase protein with variable concentration in plasma and this consequently affects the free drug concentration. Hyperquad simulation and speciation software (HySS 4.0.31) was used to calculate the fraction of free vs. bound drug by solving the mass balance equations using the measured binding affinities. […] The plasma concentrations of the drug vary over time depending on the dosing regimen, and steady–state concentrations were used in the model.
In addition to AAG, human serum albumin (HSA) also plays a critical role in drug binding due to its high plasma concentration. Therefore, to obtain more realistic estimates, the free drug concentration was calculated taking into account the available data on the binding of the studied drugs to HSA.

[3] = ref 46 lidocaine, 47 diltiazem, 48 clindamycin, 49 warfarin, cited from earlier work; for Cmax: usual therapeutic peak plasma level
[4] = cited from earlier work; for pKa: ref (5) lidocaine and diltiazem, (6) clindamycin, (7) warfarin
AAG+s = conditions: log Ka = log (1/KD), KD in M; ref (2) lidocaine, (3) warfarin, (4) clindamycin; cited from earlier work

Sequence of Native human AAG (AAG + s) (P02763 19-201): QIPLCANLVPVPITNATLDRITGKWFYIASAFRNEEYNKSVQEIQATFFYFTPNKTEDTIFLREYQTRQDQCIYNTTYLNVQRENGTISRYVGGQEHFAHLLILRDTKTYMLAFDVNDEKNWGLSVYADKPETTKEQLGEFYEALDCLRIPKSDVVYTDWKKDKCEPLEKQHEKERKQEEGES
Sequence of Desialylated human AAG (AAG − s) (P02763 19-201): as above

Row | Decrease of free plasma concentration with AAG − s vs AAG + s (AAG + s or AAG − s; AAG only, no HSA) | Compound | N (number of drug binding sites), AAG + s [1] | Δr S°, AAG + s [1] | N (number of drug binding sites), AAG − s [2] | Cmax [3] | pKa [4] | Decrease of free drug concentration, AAG − s vs AAG + s, in the presence of HSA (AAG + s or AAG − s) | Ctrough ([3]; usual therapeutic trough plasma level) | Reference AAG+s log KA (AAG+s) | Fraction present in protonated form ([4]; at the measured pH (7.40))
1 | 20–30% | COc1ccc([C@@H]2Sc3ccccc3N(CCN(C)C)C(=O)[C@@H]2OC(C)=O)cc1 [Diltiazem, diltiazem hydrochloride] | 0.804 ± 0.238 | 7.80 ± 1.74 J K^−1 mol^−1 | 0.868 ± 0.0290 | 0.44 µM | 8.03 |  |  |  | 
2 |  | CCN(CC)CC(=O)Nc1c(C)cccc1C [Lidocaine, lidocaine] |  |  |  |  |  | 10% to 40 | 6.40 µM |  | 
3 |  | CC(=O)CC(c1ccccc1)c1c(O)c2ccccc2oc1=O (stereo not shown) [Warfarin, Warfarin sodium salt] | 0.654 ± 0.117 | −191± 5.42 J K^−1 mol^−1 | 0.795 ± 0.0290 | 9.08 µM | 4.99 | 10% to 40 |  | 5.34 | 
4 |  | clindamycin phosphate |  |  |  |  |  |  |  |  | about 30%

— article PMC10218007, “Potential Clinically Relevant Effects of Sialylation on Human Serum AAG-Drug Interactions Assessed by Isothermal Titration Calorimetry: Insight into Pharmacoglycomics?” (International Journal of Molecular Sciences, 2023)
